Source: patent US20240207421A1, “NERVE TARGETING PEPTIDES AND METHODS OF USE” (ALUME BIOSCIENCES, INC., priority 2020, published 2024)

System: Laminin 421/521
Test: Phage display library screening (Example 2), NEB laminin-binding peptides
Design: species or system human
Conditions: Laminin 421/521, not 211 and 411; combined unique sequence count, Python/R script analysis
Procedure: Phage display library screens were used to identify peptides that bind to target proteins (including specific laminin trimers) that are expressed in human nerves, as described in Table 3. These screens were also carried out to identify peptides that could bind selectively to nerves versus muscle. Such peptides could therefore be useful for systemic in-vivo labeling of nerves during fluorescence assisted surgery. Specifically, m 13 phage libraries expressing 7 or 12 random amino acid peptides, or a cyclic peptide CX7C, on the N-terminus of the minor coat protein pIII (New England Biolabs; NEB) were processed through multiple rounds of selection for binding to target proteins expressed in nerves, or to excised human nerves, nerve extracts, or muscle, as described further below.
For screening against the specified target proteins in Table 1, including LN211, LN411, LN421, and LN521, the phage library was processed by up to 4 binding and wash cycles. For selection, phage libraries were incubated for up to 24 hours at 4° C. in 96 well plates that had been coated with one of the target proteins. Plates were then washed with PBS and phage were eluted using 0.2M glycine pH 2.0. Phage supernatants where then neutralized with Tris pH 9.0 prior to plating on TGI bacteria and LB agar plates. Colonies were counted to determine titer followed by DNA preparation of pools of phage and NextGen sequencing. After rounds of selection, phage were pooled and amplified for iterative selection. Phage that were bound at each round were sequenced. NextGen sequencing of pools after 2, 3 and 4 rounds of selection was used to isolate candidate sequences that were analyzed further to identify those that specifically bound each unique target protein.
For all NEB sequence datasets, a python script was used to translate, trim, and filter the peptide sequences (see details above). A python script was used to group peptides from different assays according to laminin complex binding (laminin complex 211, 411, 421, or 521) and combine the unique sequence counts for each peptide. An R script was written to merge the peptide sequences from different data files and determine peptides that specifically bind one laminin complex and not the others, or that bind both laminin 421 and 521 but not 211 and 411.

Substance | Count
RLVTASMVSPSF (Laminin 421/521-binding peptide) | 95
CSKHNHSRC (Laminin 421/521-binding peptide) | 295
WTKHNTPAHHLS (Laminin 421/521-binding peptide) | 89
CTGETLLTC (Laminin 421/521-binding peptide) | 28
EYWHQRGSWFHR (Laminin 421/521-binding peptide) | 55
WRSPLTT (Laminin 421/521-binding peptide) | 30
GDVITAYINPWP (Laminin 421/521-binding peptide) | 39
CTAWTRQEC (Laminin 421/521-binding peptide) | 31
EVERILTPHVNN (Laminin 421/521-binding peptide) | 29
LARSSIMAANNV (Laminin 421/521-binding peptide) | 42
RAQAHQV (Laminin 421/521-binding peptide) | 51
ETGGLAYGSGQK (Laminin 421/521-binding peptide) | 28
GSLDMGNNKQPV (Laminin 421/521-binding peptide) | 62
CFQPKMNSC (Laminin 421/521-binding peptide) | 42
AGAYTSRHAFDE (Laminin 421/521-binding peptide) | 39
GPKNHHQ (Laminin 421/521-binding peptide) | 51
SVLSTGTANQRH (Laminin 421/521-binding peptide) | 28
TTLWLDRDEALK (Laminin 421/521-binding peptide) | 27
SYDGTMLKQVRL (Laminin 421/521-binding peptide) | 36
CTGRISKHC (Laminin 421/521-binding peptide) | 43
QTFHEYLNPARG (Laminin 421/521-binding peptide) | 37
HQSVTGVRSHFH (Laminin 421/521-binding peptide) | 27
KALGYSLVGGEW (Laminin 421/521-binding peptide) | 134
GDAQILM (Laminin 421/521-binding peptide) | 38

Substance | Count
ETYKVTRVISPW (Laminin 421/521-binding peptide) | 50
AKTQAPSNWSGV (Laminin 421/521-binding peptide) | 43
WPVRNLL (Laminin 421/521-binding peptide) | 67
DGQVSDHSYVQW (Laminin 421/521-binding peptide) | 101
WGWNGANMSPRG (Laminin 421/521-binding peptide) | 31
CTSKLARHC (Laminin 421/521-binding peptide) | 45
GWIQDTFVLGRS (Laminin 421/521-binding peptide) | 40
EAVSTQI (Laminin 421/521-binding peptide) | 27
CQGWPRPMC (Laminin 421/521-binding peptide) | 30
QGWFRHS (Laminin 421/521-binding peptide) | 121
SDRGKTVLHGQI (Laminin 421/521-binding peptide) | 54
GAMMNSNNLVAR (Laminin 421/521-binding peptide) | 43
RALDRYLPWSPH (Laminin 421/521-binding peptide) | 28
KQELSDNLASHR (Laminin 421/521-binding peptide) | 50
TVARSTAQERSI (Laminin 421/521-binding peptide) | 28
KISMNRLHANFT (Laminin 421/521-binding peptide) | 110
LGHQNGGRADMW (Laminin 421/521-binding peptide) | 35
NWTHLGVARLQP (Laminin 421/521-binding peptide) | 36
ANRYLAS (Laminin 421/521-binding peptide) | 40
CLNQKWEAC (Laminin 421/521-binding peptide) | 64
GQPRNIHLPGTH (Laminin 421/521-binding peptide) | 40
NGHEVQSRAANR (Laminin 421/521-binding peptide) | 29
WVAAERR (Laminin 421/521-binding peptide) | 115
TSAVSLR (Laminin 421/521-binding peptide) | 27

Substance | Count
GSTTHPHFGLPG (Laminin 421/521-binding peptide) | 40
VIADQSKSAVAV (Laminin 421/521-binding peptide) | 27
ADMPQMTLKYGV (Laminin 421/521-binding peptide) | 47
DDLLTAPRLGVW (Laminin 421/521-binding peptide) | 54
ATSKYPNSWAQT (Laminin 421/521-binding peptide) | 80
HASNQRV (Laminin 421/521-binding peptide) | 93
AVYPLDLGAGMR (Laminin 421/521-binding peptide) | 46
QGWKDRLPIWRY (Laminin 421/521-binding peptide) | 29
MTHSAHNSQKTN (Laminin 421/521-binding peptide) | 117
SGWEGKTHQGVR (Laminin 421/521-binding peptide) | 69
VPVFLDQARVMK (Laminin 421/521-binding peptide) | 53
DIMKSPRSNLRS (Laminin 421/521-binding peptide) | 37
SPDRTNWGWQTN (Laminin 421/521-binding peptide) | 29
GIVPSRHTTGLG (Laminin 421/521-binding peptide) | 28
CTDGRNFVC (Laminin 421/521-binding peptide) | 28
AWVEAQNASNPS (Laminin 421/521-binding peptide) | 160
SLPYAASLNSVE (Laminin 421/521-binding peptide) | 28
DRMYSTVPAEGL (Laminin 421/521-binding peptide) | 27
CNSWKAAKC (Laminin 421/521-binding peptide) | 29
WSPANGWRHQTI (Laminin 421/521-binding peptide) | 36
DWTQVRVTNWFL (Laminin 421/521-binding peptide) | 35
QTFGYSMFNVRT (Laminin 421/521-binding peptide) | 30
SVVGWAAPRTAQ (Laminin 421/521-binding peptide) | 27
QGWEFQVPARHS (Laminin 421/521-binding peptide) | 30

Substance | Count
QLQHVHL (Laminin 421/521-binding peptide) | 28
CHNADNNGC (Laminin 421/521-binding peptide) | 32
CKWTQLWGC (Laminin 421/521-binding peptide) | 40
WAYTDYM (Laminin 421/521-binding peptide) | 35
GGYDLPWANWQN (Laminin 421/521-binding peptide) | 497
TFGSGRSMPIQY (Laminin 421/521-binding peptide) | 34
NHDQGSLTRWRS (Laminin 421/521-binding peptide) | 31
QTRWDDGSYQIS (Laminin 421/521-binding peptide) | 49
LGPSTQGAGQTR (Laminin 421/521-binding peptide) | 38
SYTATWSEMSRS (Laminin 421/521-binding peptide) | 28
VVPSWPSVHRPP (Laminin 421/521-binding peptide) | 31
GPMLKNLSDAVT (Laminin 421/521-binding peptide) | 31
CTPRSATLC (Laminin 421/521-binding peptide) | 37
CIGGPHRNC (Laminin 421/521-binding peptide) | 29
AQRMNQA (Laminin 421/521-binding peptide) | 38
SVQTPMWRSLVG (Laminin 421/521-binding peptide) | 28
IPVGERK (Laminin 421/521-binding peptide) | 124
WQWRSTELGYRY (Laminin 421/521-binding peptide) | 36
CVLKCEDQKYRG (Laminin 421/521-binding peptide) | 27
WDLPTLRKTKQA (Laminin 421/521-binding peptide) | 114
CSRAGLSAC (Laminin 421/521-binding peptide) | 30
CHQRQQTYC (Laminin 421/521-binding peptide) | 55
GLLDWGSLQGGN (Laminin 421/521-binding peptide) | 30
